Data set [1] concerns A. haemolyticus 1655843. The data set is described as follows: Checkerboard fusidic acid (FD) and colistin sulfate (CS), MIC/FIC and MBC/FBC. The data set is classed as cell-based, Acinetobacter haemolyticus. As to conditions: agent alone, CAMHB, 1*10^6 CFU/ml. The protocol:
(§1) Checkerboard assays between fusidic acid (FD) and colistin sulfate (CS) with a bacterial load 5(1-10)*10^5 CFU/ml in cationic adapted Mueller Hinton broth (CAMHB). • a. Antimicrobial stock solutions were prepared using sterile distilled water; • b. CS was added along the ordinate; FD was added along the abscissa to 96 well, flat bottom, polystyrene panels with no treatment. Colistin alone was tested in triplicates; • c. Serial 2-fold dilutions starting with 640 […] CS and 640 μg/ml FD were made; 15 μl volume of the serial dilutions were added for each agent to the appropriate wells—final volume at 30 μl; • d. For each agent tested alone an additional 15 μl media was added to the well. 30 μl were added in control wells where none of the agent was tested. The negative control well contains 150 μl media without any additions; • e. From an overnight bacterial culture in tryptic soy broth, 100 μL was added to 10 mL of fresh tryptic soy broth. This was then incubated at 37° C. for 1.5 hour at 180 rpm; • f. Bacteria in 120 μl CAMHB were added to each well (end concentration 5(1-10)*10^5 CFU/ml); • g. Plates were incubated at 37° C. in an ambient air incubator for 24 h • h. Turbidity at OD600 is determined with a plate photometer • i. By using a one-time inoculator 3 μl from each well of the 96-well plate were transferred to three blood agar plates. The plates were incubated over night at 37° C. in an ambient air incubator; • j. MIC values are defined as lowest concentration which restricts bacterial growth to OD600≤0.1; • k. MBC values were determined by visual reading the lowest concentration which inhibits 99.9% of the growth of bacteria in the wells; • l. Determination of the fractional inhibitory concentration (FIC) index and fractional bactericidal concentration (FBC) index and characterization of antimicrobial interactions was assessed;
(§2) FIC calculation was carried out as: (MIC of drug A, tested in combination)/(MIC of drug A, tested alone)+(MIC of drug B, tested in combination)/(MIC of drug B, tested alone). FBC calculation was carried out just as well;
(§3) Interactive categories were calculated from checkerboard analysis using MIC results from testing each agent alone and MIC results from the combination wells adjacent to the wells with growth in them.
(§4) Determination of the fractional inhibitory concentration (FIC) index and fractional bactericidal concentration (FBC) index and characterization of antimicrobial interactions was assessed:
(§5) (ii) Indifference; FIC/FBC>0.5 to <4.0
(§6) (iii) Antagonism; FIC/FBC≥4.0
c. Acinetobacter haemolyticus 1655843 (IHMA), colistin resistant (3xCS>16/>16-64/>64)

The subject of data set [2] is A. nosocomialis 1461911. The data set is described as above. The data set is classed as cell-based, Acinetobacter nosocomialis. As to conditions: A. nosocomialis 1461911, agent alone, CAMHB, 1*10^6 CFU/ml. On the procedure: as §1, §2, §3, §4, §5, §6
b. Acinetobacter nosocomialis 1461911 (IHMA), colistin resistant (3xCS 4/8)

The test system of data set [3] is S. maltophilia 1237289. The data set is described as follows: Checkerboard fusidic acid (FD) and colistin sulfate (CS), MIC/FIC. It counts as cell-based, Stenotrophomonas maltophilia. As to conditions: S. maltophilia 1237289, agent alone, CAMHB, 1*10^6 CFU/ml. On the procedure:
as §1, §2, §3, §4, §5, §6
e. Stenotrophomonas maltophilia 1237289 (IHMA), colistin resistant (CS 2/4-4/8-8/8)

The subject of data set [4] is A. junii 1397597. In words: Checkerboard fusidic acid (FD) and colistin sulfate (CS), MIC/FIC and MBC/FBC. As to conditions: agent alone, CAMHB, 1*10^6 CFU/ml. It counts as cell-based, Acinetobacter junii. On the procedure: as §1, §2, §3, §4, §5, §6
a. Acinetobacter junii 1391597 (IHMA), colistin resistant (CS 2/2-2/8)

In data set [5] the test system is A. guillouiae 1285286. The data set is described as above. The note with it: agent alone, CAMHB, 1*10^6 CFU/ml. The data set is classed as cell-based, Acinetobacter guillouiae. On the procedure:
as §1, §2, §3, §4, §5, §6
d. Acinetobacter guillouiae 1285286 (IHMA), colistin resistant (2xCS 2/4)

Data set [6] concerns S. maltophilia 1221783. In words: Checkerboard fusidic acid (FD) and colistin sulfate (CS), MIC/FIC. The data set is classed as cell-based, Stenotrophomonas maltophilia. The note with it: agent alone, CAMHB, 1*10^6 CFU/ml, 24 h. On the procedure:
Checkerboard assays between fusidic acid (FD) and colistin sulfate (CS) with a bacterial load 5(1-10)*10^5 CFU/ml in cationic adapted Mueller Hinton broth (CAMHB). • a. Antimicrobial stock solutions were prepared using sterile distilled water; • b. CS was added along the ordinate; FD was added along the abscissa to 96 well, flat bottom, polystyrene panels with no treatment. Colistin alone was tested in triplicates; • c. Serial 2-fold dilutions starting with 640 […] CS and 640 μg/ml FD were made; 15 μl volume of the serial dilutions were added for each agent to the appropriate wells—final volume at 30 μl; • d. For each agent tested alone an additional 15 μl media was added to the well. 30 μl were added in control wells where none of the agent was tested. […] Turbidity at OD600 is determined with a plate photometer • i. […] Determination of the fractional inhibitory concentration (FIC) index and fractional bactericidal concentration (FBC) index and characterization of antimicrobial interactions was assessed; […]
as §3
Determination of the fractional inhibitory concentration (FIC) index and fractional bactericidal concentration (FBC) index and characterization of antimicrobial interactions was assessed: […]

Data set [7] concerns A. nosocomialis 1461911. In words: Checkerboard colistin sulphate (CS) plus teicoplanin (TP), MIC/FIC and MBC/FBC. It counts as cell-based, Acinetobacter nosocomialis. The note with it: agent alone, CAMHB, 5*10^5 CFU/ml. On the procedure:
(§7) Checkerboard analysis to determine minimal inhibitory concentration (MIC)/fractional inhibitory concentration (FIC) and minimal […] (MBC)/fractional […] (FBC) values of colistin sulphate (CS) plus teicoplanin (TP) for 6 Gram-negative strains with a bacterial load 5(1-10)*10^5 CFU/ml in a cation-adjusted Mueller-Hinton broth (CAMHB). • a. Antimicrobial stock solutions were prepared using sterile distilled water • b. CS was added along the ordinate; TP was added along the abscissa to 96 well, flat bottom, polystyrene panels with no treatment. Colistin alone was tested in triplicates. • c. Serial 2-fold dilutions starting with 640 μg/ml CS and 640 μg/ml TP were made; 15 μl volume of the serial dilutions were added for each agent to the appropriate wells; final volume at 30 μl • d. For each agent tested alone an additional 15 μl media was added to the well. 30 μl were added in control wells where none of the agent was tested. The negative control well contains 150 μl media without any additions • e. From an overnight bacterial culture in tryptic soy broth, 100 μL was added to 10 mL of fresh tryptic soy broth. This was then incubated at 37° C. for 1.5 hour at 180 rpm. • f. Bacteria in 120 μl CAMHB were added to each well (end concentration 5(1-10)*10^5 CFU/ml) • g. Plates were incubated at 37° C. in an ambient air incubator for 24 h • h. Turbidity at OD600 is determined with a plate photometer • i. By using a one-time inoculator 3 μl from each well of the 96-well plate were transferred to three blood agar plates. The plates were incubated over night at 37° C. in an ambient air incubator • j. MIC values are defined as lowest concentration which restricts bacterial growth to OD600 ≤0.1 • k. MBC values were determined by visual reading the lowest concentration which inhibits 99.9% of the growth of bacteria in the wells • l. Determination of the fractional inhibitory concentration (FIC) index and fractional bactericidal concentration (FBC) index and characterization of antimicrobial interactions was assessed […]
(§8) FIC calculation was carried out as: (MIC of drug A, tested in combination)/(MIC of drug A, tested alone)+(MIC of drug B, tested in combination)/(MIC of drug B, tested alone). FBC calculation was carried out just as well […]
(§9) Interactive categories were calculated from checkerboard analysis using MIC results from testing each agent alone and MIC results from the combination wells adjacent to the wells with growth in them […]
b. Indifference; FIC/FBC>0.5 to<4.0 c. Antagonism; FIC/FBC≥4.0 b. A. nosocomialis 1461911 (IHMA), colistin resistant

Data set [8] has as its system A. junii 1397597. Described as above. It counts as cell-based, Acinetobacter junii. The note with it: agent alone, CAMHB, 5*10^5 CFU/ml. On the procedure:
as §7, with “MIC values are defined as lowest concentration which restricts bacterial growth to OD600 ≤0.1 • k. MBC values were determined by visual reading the lowest concentration which inhibits 99.9% of the growth of bacteria in the wells • l.” left out
as §9

Data set [9] deals with A. haemolyticus 1655843. The data set is described as above. It counts as cell-based, Acinetobacter haemolyticus. As to conditions: agent alone, CAMHB, 5*10^5 CFU/ml. The protocol:
as §7, §8, §9
b. Indifference; FIC/FBC>0.5 to<4.0 c. Antagonism; FIC/FBC≥4.0 c. A. haemolyticus 1655843 (IHMA), colistin resistant

Data set [10] relates to Methicillin-resistant Staphylococcus aureus (MRSA). In words: Three-step decolonization protocol for MRSA in paediatric patients with cystic fibrosis. It counts as in vivo. As to conditions: patients are to receive a further five-day intravenous treatment to increase the success rate. The protocol: Methicillin-resistant Staphylococcus aureus (MRSA) is a bacterial pathogen in patients with cystic fibrosis (CF) although its clinical effects can be variable. In a three-step decolonization protocol for MRSA 15 paediatric patients are treated during a long follow-up period where 50% are successfully decolonized following one five-day course of i.v. Colistin and fusidic acid. To increase the success rate the patients are to receive a five-day intravenous teicoplanin treatment to clear MRSA colonization to 90-100%.

In data set [11] the test system is A. guillouiae 1285286. The data set is described as follows: Checkerboard colistin sulphate (CS) plus teicoplanin (TP), MIC/FIC and MBC/FBC. The data set is classed as cell-based, Acinetobacter guillouiae. The note with it: agent alone, CAMHB, 5*10^5 CFU/ml. On the procedure: as §7, §8, §9
b. Indifference; FIC/FBC>0.5 to<4.0 c. Antagonism; FIC/FBC≥4.0 d. A. guillouiae 1285286 (IHMA), colistin resistant

Data set [12] has as its system S. maltophilia 1221783. The description is as above. It counts as cell-based, Stenotrophomonas maltophilia. The note with it: agent alone, CAMHB, 5*10^5 CFU/ml, 24 h. The protocol: as §7, with “MIC values are defined as lowest concentration which restricts bacterial growth to OD600 ≤0.1 • k. MBC values were determined by visual reading the lowest concentration which inhibits 99.9% of the growth of bacteria in the wells • l.” left out
as §9

The conditions of data set [13]: in vivo; cited from earlier work.
Data set [14] concerns S. maltophilia 1237289. In words: Checkerboard colistin sulphate (CS) plus teicoplanin (TP), MIC/FIC and MBC/FBC. It counts as cell-based, Stenotrophomonas maltophilia. As to conditions: S. maltophilia 1237289, agent alone, CAMHB, 5*10^5 CFU/ml. On the procedure:
as §7, with “Plates were incubated at 37° C. in an ambient air incubator for 24 h • h.” left out
as §8, §9
b. Indifference; FIC/FBC>0.5 to<4.0 c. Antagonism; FIC/FBC≥4.0 f. S. maltophilia 1237289 (IHMA), colistin resistant

The mark [15] stands for this setting: after 48 h growth (values in brackets).

We go through 2 compounds from patent publication US20220016200A1, “PHARMACEUTICAL COMPOSITION FOR THE TREATMENT OF CYSTIC FIBROSIS” (GALENUS G.H. AG, priority 2018, published 2022).

What is called MBC is the smallest concentration meeting the test's criterion for killing.

For the compound `CC(=O)O[C@H]1C[C@@]2(C)[C@@H](C[C@@H](O)[C@H]3[C@@]4(C)CC[C@@H](O)[C@@H](C)[C@@H]4CC[C@@]32C)/C1=C(\CCC=C(C)C)C(=O)O` [FD, fusidic acid], the MIC in [1] (A. haemolyticus 1655843, 24 h) is 32 mg/1l; in data set [2] (24 h) it was more than 64 mg/1l; in [3] (24 h), more than 64 mg/1l; in [3] (setting [15]) it was “(>64) mg/1l”; in data set [4] (A. junii 1397597, 24 h) it was 32 mg/1l; in [5] (A. guillouiae 1285286, 24 h) it was 16 mg/1l. Moreover, the MIC in [6] worked out at 64 mg/1l. The minimal bactericidal concentration (MBC) in data set [1] (Acinetobacter haemolyticus, 1655843, A. haemolyticus 1655843) is 64 µg/mL; in data set [2] (Acinetobacter nosocomialis), more than 64 µg/mL; in data set [4] (Acinetobacter junii, 1397597, A. junii 1397597) it was 64 µg/mL; in [5] (Acinetobacter guillouiae, 1285286, A. guillouiae, read-out: MBC) it was more than 64 µg/mL.
As to teicoplanin [TP], the MIC in data set [7] (A. nosocomialis 1461911, 24 h) was more than 64 µg/mL; in [8] (A. junii 1397597, 24 h), more than 64 µg/mL; in data set [9] (A. haemolyticus 1655843, 24 h) it was more than 64 µg/mL; in [11] (A. guillouiae 1285286, 24 h) it was more than 64 µg/mL; in data set [12], more than 64 µg/mL; in data set [14] (24 h), more than 64 µg/mL. Moreover, the MIC entry in data set [14] (setting [15]) was “(>64) mg/l”. In addition, the MBC in data set [7] (A. nosocomialis), in data set [8] (A. junii), in data set [9] (A. haemolyticus) and in data set [11] (A. guillouiae) was more than 64 µg/mL in each case. Also, the “clear MRSA colonization to” value in [10] was 90-100%. Further, in [13], the “terminal half-life, mean (±SD)” value is given as 157 (±93) h. Also, the “terminal half-life, median (range)” value in [13] was 168 (111-278) h.
